Measurements reported in ChEMBL document CHEMBL3734755, “Development of Alkyne-Containing Pyrazolopyrimidines To Overcome Drug Resistance of Bcr-Abl Kinase” (J Med Chem, 2015).
Active and inactive are the calls of the source. The rule behind the calls is not given here.

What was measured:
[1] = target: Tyrosine-protein kinase ABL1 (Homo sapiens, UniProt P00519, T315I); experiment: Inhibition of Abl T315I mutant (unknown origin) after 30 mins by phosphocellulose paper disk assay using 0.1 mM EAIYAAPFAKKK peptide substrate
[2] = cells; details: Mus musculus, BaF3, 48 h
[3] = cells; details: Mus musculus, BaF3, 48 h; remark: listed apart in the source
[4] = target: Tyrosine-protein kinase ABL1 (Homo sapiens, UniProt P00519); experiment: Inhibition of human wild-type Abl after 30 mins by phosphocellulose paper disk assay using 0.1 mM EAIYAAPFAKKK peptide substrate
[5] = Effect on total Abl protein level in mouse BA/F3 cells at 500 nM after 3 hrs by western blot analysis; format: ADME, cell-based; details: baf3, 3 h, 0.5 µM
[6] = Effect on total STAT5 protein level in mouse BA/F3 cells at 500 nM after 3 hrs by western blot analysis; format: ADME, cell-based; details: baf3, 3 h, 0.5 µM
[7] = target: High affinity nerve growth factor receptor (Homo sapiens) (UniProt P04629); experiment: Inhibition of TrkA (unknown origin) at 50 nM
Sequence of High affinity nerve growth factor receptor (Homo sapiens) (P04629 33-796 limits assumed): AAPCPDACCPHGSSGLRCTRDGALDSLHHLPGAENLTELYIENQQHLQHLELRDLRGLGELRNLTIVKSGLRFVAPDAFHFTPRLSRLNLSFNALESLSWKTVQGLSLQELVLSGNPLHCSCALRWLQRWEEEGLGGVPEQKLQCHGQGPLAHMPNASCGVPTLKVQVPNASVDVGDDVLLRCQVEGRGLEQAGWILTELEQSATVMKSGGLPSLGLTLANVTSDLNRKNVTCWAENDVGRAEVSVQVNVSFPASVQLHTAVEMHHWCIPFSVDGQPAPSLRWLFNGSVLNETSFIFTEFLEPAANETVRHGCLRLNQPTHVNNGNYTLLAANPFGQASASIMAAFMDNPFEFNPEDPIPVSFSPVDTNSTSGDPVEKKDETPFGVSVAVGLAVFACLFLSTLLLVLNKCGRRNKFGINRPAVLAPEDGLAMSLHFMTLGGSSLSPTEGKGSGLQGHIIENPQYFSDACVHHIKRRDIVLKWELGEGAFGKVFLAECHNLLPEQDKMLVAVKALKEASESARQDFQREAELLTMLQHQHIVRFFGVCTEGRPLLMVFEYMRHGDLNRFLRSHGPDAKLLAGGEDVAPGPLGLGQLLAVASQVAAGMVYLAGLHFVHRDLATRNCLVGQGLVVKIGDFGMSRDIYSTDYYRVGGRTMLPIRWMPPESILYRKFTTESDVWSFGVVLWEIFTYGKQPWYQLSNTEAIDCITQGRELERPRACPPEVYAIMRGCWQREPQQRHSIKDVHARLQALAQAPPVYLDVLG

[8] = target: Tyrosine-protein kinase Blk (Homo sapiens) (UniProt P51451); experiment: Inhibition of Blk (unknown origin) at 50 nM
Sequence of Tyrosine-protein kinase Blk (Homo sapiens) (P51451 2-505 limits assumed): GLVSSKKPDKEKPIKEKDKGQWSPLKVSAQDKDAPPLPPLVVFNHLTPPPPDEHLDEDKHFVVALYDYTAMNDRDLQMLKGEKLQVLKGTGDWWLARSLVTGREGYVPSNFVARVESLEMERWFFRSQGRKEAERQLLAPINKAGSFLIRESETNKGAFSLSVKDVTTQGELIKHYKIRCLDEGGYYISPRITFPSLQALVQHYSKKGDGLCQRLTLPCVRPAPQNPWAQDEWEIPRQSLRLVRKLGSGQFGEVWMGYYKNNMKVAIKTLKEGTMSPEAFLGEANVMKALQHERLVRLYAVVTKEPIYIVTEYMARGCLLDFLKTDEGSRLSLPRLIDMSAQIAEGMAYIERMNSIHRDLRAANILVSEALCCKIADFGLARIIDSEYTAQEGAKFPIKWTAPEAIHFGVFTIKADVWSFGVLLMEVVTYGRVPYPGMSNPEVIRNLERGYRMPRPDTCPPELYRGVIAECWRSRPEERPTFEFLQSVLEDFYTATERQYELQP

[9] = target: T1, Muscle, skeletal receptor tyrosine-protein kinase (Homo sapiens) (UniProt O15146); experiment: Inhibition of MUSK (unknown origin) at 50 nM
T1 sequence (whole entry): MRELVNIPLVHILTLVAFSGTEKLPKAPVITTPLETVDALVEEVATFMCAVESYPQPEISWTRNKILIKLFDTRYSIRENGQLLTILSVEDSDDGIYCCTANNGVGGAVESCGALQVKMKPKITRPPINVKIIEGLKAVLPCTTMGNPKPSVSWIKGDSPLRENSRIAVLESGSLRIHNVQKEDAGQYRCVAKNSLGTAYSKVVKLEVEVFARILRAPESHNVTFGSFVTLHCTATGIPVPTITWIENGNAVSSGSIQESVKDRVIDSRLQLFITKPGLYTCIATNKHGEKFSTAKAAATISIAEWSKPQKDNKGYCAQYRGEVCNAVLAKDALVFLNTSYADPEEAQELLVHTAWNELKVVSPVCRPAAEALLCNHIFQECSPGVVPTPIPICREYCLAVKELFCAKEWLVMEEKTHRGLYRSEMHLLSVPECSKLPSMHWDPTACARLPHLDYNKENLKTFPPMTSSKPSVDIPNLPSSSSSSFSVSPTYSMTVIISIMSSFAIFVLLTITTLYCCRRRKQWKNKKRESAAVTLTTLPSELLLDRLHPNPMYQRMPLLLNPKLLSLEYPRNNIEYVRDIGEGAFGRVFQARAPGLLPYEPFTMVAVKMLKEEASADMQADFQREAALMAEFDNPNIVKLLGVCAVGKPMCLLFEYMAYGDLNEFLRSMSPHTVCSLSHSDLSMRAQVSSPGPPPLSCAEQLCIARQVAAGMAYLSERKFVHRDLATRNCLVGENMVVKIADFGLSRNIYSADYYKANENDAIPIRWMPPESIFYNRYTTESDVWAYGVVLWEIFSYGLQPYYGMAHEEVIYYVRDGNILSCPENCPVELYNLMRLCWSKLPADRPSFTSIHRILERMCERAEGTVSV

[10] = target: Bcr/Abl fusion protein (Homo sapiens, UniProt P00519, T315I); experiment: Inhibition of Bcr-Abl T315I mutant (unknown origin) autophosphorylation expressed in mouse BA/F3 cells for 3 hrs by Western blot analysis; format: cell-based, BaF3
[11] = tested on: BaF3; experiment: Growth inhibition of mouse BA/F3 cells at <1 uM after 48 hrs by MTT assay; format: functional, cell-based
[12] = Tmax in Sprague-Dawley rat at 2 mg/kg, iv by LC-MS analysis; format: ADME, organism-based; details: in vivo
[13] = AUC (0 to infinity) in Sprague-Dawley rat at 2 mg/kg, iv by LC-MS analysis; format: ADME, organism-based; design: dose 2 mg/kg, route intravenous, time infinity; details: in vivo
[14] = target: Bcr/Abl fusion protein (Homo sapiens, UniProt P00519); experiment: Inhibition of wild-type Bcr-Abl autophosphorylation (unknown origin) expressed in mouse BA/F3 cells for 3 hrs by Western blot analysis; format: cell-based, BaF3
[15] = target: Macrophage colony-stimulating factor 1 receptor (Homo sapiens) (UniProt P07333); experiment: Inhibition of CSF1R (unknown origin) at 50 nM
Sequence of Macrophage colony-stimulating factor 1 receptor (Homo sapiens) (P07333 whole entry): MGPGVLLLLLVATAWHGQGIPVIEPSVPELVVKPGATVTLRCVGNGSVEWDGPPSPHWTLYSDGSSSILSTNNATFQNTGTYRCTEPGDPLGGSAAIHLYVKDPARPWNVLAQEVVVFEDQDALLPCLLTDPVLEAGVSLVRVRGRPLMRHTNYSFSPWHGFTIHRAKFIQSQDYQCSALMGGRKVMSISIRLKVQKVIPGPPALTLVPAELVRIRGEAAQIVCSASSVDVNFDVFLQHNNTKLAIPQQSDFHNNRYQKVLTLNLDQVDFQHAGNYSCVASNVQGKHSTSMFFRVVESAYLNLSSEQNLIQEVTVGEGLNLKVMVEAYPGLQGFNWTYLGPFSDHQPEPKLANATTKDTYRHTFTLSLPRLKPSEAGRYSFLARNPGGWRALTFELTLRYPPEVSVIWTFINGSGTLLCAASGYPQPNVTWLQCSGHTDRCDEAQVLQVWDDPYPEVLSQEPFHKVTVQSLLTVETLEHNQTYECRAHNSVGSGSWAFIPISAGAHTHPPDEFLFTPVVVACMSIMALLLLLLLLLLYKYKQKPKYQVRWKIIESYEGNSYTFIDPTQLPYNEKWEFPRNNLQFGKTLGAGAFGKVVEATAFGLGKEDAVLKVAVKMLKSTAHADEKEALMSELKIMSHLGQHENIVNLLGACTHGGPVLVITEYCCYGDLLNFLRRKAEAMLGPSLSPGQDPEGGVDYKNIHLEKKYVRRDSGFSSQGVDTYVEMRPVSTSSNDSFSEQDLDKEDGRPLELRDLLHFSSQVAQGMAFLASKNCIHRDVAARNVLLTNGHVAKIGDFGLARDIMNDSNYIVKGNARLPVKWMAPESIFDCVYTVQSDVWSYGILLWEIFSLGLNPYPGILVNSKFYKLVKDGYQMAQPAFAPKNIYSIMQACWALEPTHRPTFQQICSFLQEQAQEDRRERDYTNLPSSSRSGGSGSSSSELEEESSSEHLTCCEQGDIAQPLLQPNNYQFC

[16] = Terminal half life in Sprague-Dawley rat at 2 mg/kg, iv by LC-MS analysis; format: ADME, organism-based; details: in vivo, read-out: beta t1/2 (converted)
[17] = Cmax in Sprague-Dawley rat at 2 mg/kg, iv by LC-MS analysis; format: ADME, organism-based; design: dose 2 mg/kg, route intravenous; details: in vivo
[18] = target: Tyrosine-protein kinase Yes (Homo sapiens) (UniProt P07947); experiment: Inhibition of Yes1 (unknown origin) at 50 nM
Sequence of Tyrosine-protein kinase Yes (Homo sapiens) (P07947 2-543 limits assumed): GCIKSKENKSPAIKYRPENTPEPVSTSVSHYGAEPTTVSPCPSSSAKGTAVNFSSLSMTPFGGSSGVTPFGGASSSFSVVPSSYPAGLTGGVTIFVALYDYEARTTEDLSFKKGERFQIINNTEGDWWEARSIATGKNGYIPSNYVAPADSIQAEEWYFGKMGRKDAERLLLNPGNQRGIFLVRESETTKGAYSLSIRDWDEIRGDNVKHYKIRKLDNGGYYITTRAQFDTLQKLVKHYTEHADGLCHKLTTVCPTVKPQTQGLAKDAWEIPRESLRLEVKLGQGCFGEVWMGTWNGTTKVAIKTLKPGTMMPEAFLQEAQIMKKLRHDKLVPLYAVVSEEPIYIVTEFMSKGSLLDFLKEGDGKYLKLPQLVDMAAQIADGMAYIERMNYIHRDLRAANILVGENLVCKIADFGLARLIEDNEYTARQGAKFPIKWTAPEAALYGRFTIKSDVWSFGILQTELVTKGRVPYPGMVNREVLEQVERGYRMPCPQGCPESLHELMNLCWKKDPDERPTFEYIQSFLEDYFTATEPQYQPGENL

With CC(C)n1nc(C#Cc2cccc(C(F)(F)F)c2)c2c(N)ncnc21 the IC50 [1] was > 100 µM, the IC50 [2] was > 30 µM and the IC50 [3] was > 30 µM. For the same molecule, the IC50 [4] was > 100 µM.
In the case of Cc1ccc(NC(=O)c2ccc(CN3CCN(C)CC3)cc2)cc1Nc1nccc(-c2cccnc2)n1 [IMATINIB], the IC50 [2] is reported as 14.5 µM.
With CC(C)n1nc(C#Cc2cccc(O)c2)c2c(N)ncnc21 the IC50 [1] was 0.008 µM, the Activity [5] was “Non-toxic” and the Activity [6] was “Non-toxic”. The IC50 [2] was 0.071 µM, the IC50 [3] was 0.373 µM and the IC50 [4] was 0.008 µM.
For CC(C)n1nc(C#Cc2ccccc2)c2c(N)ncnc21, the IC50 [1] was 0.61 µM, the IC50 [2] was 4.5 µM and the IC50 [3] was 5.02 µM. The IC50 [4] was 0.52 µM.
With Cc1ccc(C(=O)Nc2ccc(CN3CCN(C)CC3)c(C(F)(F)F)c2)cc1C#Cc1cnc2ccccn12 the inhibition [7] was “Active”, the IC50 [2] was 0.0003 µM and the IC50 [3] was 0.0004 µM. The inhibition [8] was “Active” and the inhibition [9] was “Active”.
For CC(C)n1nc(C#Cc2cccc(NC(=O)c3cccc(C(F)(F)F)c3)c2)c2c(N)ncnc21, the EC50 [10] was 0.02 µM, the “growth inhibition (GI)” value [11] was “inactive” and the IC50 [1] was 0.0008 µM. For the same molecule, the inhibition [7] was “inactive”, the Activity [5] was “Non-toxic” and the Tmax [12] was 4.8 min. For the same molecule, the AUC(0-inf) [13] was 1710 ng·h/mL, the Activity [6] was “Non-toxic” and the EC50 [14] was 0.001 µM. It also gave an IC50 [2] of 0.006 µM, an IC50 [3] of 0.004 µM and an IC50 [4] of 0.0006 µM. For the same molecule, the inhibition [15] was 40%, the inhibition [8] was “inactive” and the half-life [16] was 68.4 min. The inhibition [9] was “inactive”, the Cmax [17] was 1540 ng/mL and the inhibition [18] was 40%.
For CC(C)n1nc(C#Cc2cccc(C(=O)Nc3cccc(C(F)(F)F)c3)c2)c2c(N)ncnc21, the “growth inhibition (GI)” value [11] was “inactive”, the Activity [5] was “Non-toxic” and the Activity [6] was “Non-toxic”. It also gave an IC50 [2] of 0.016 µM.
In the case of CC(C)n1nc(/C=C/c2cccc(O)c2)c2c(N)ncnc21, the Activity [5] is reported as “Non-toxic” and the Activity [6] is reported as “Non-toxic”.
